Assay results taken from article PMC6379498, “Radiosynthesis and in vivo evaluation of ^11C-labeled BMS-193885 and its desmethyl analog as PET tracers for neuropeptide Y1 receptors” (EJNMMI Radiopharmacy and Chemistry, 2019).

Assays:
[1] = Biodistribution of radioactivity in mice after tracer injection; type: in vivo; conditions: mean±S.D. n=4
Method: [^11C]1 (13 MBq/0.12 nmol) or [^11C]2 (15 MBq/0.36 nmol) was intravenously injected into mice (aged 7–8 weeks, weighing 33–38 g, n = 4). Mice were euthanized by cervical dislocation at 5, 15, 30, or 60 min post-injection.
(§1) Blood samples were collected by heart puncture. Tissues were dissected and weighed. The radioactivity in samples was measured with an automatic gamma counter (Wizard 3′′ 1480, PerkinElmer, Waltham, MA, USA). The tissue uptake of radioactivity was expressed as the percentage of injected dose detected per gram of sample (%ID/g, tissue radioactivity/g tissue/injected radioactivity × 100).

[2] = target: T1, NPY Y1-Rs (Mus musculus, UniProt Q04573); assay: Effect of pretreatment with 1 (BMS-193885) on tissue distribution of radioactivity; type: in vivo, mice; conditions: 30 min post-injection, 1 10 mg/kg 20-30 min before tracer, vs control
T1 construct: in the lung, spleen, and kidney, which are rich in NPY Y1-Rs; from tissue; host or cells: organs of living mice (blood, heart, lung, spleen, kidney, liver, pancreas, muscle, brain etc.)
T1 sequence (Q04573 1-382): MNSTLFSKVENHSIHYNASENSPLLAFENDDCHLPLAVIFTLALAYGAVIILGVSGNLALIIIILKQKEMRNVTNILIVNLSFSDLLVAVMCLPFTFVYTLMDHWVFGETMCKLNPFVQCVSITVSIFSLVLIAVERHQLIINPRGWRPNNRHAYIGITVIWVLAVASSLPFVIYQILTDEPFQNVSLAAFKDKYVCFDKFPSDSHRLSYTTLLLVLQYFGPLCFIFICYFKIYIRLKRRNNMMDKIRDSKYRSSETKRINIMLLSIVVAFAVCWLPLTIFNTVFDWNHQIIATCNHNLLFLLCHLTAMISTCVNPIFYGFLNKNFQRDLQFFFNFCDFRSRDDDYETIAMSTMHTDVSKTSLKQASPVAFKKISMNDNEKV
Method: (§2) [^11C]1 (7.1–14 MBq/0.079–0.23 nmol) or [^11C]2 (6.0 MBq/0.16 nmol) was intravenously injected into mice (aged 7–8 weeks, weighing 32–36 g, n = 4–8) 20–30 min after the administration of the solution of 1 (10 mg/kg body weight [b.w.]/0.1 mL water containing 20% Tween 80), elacridar (5 mg/kg b.w./0.1 mL water), or a control fluid (0.1 mL water). Mice were euthanized by cervical dislocation at 30 min post-injection.
Blood samples were collected by heart puncture. Tissues were dissected and weighed. […] The tissue uptake of radioactivity was expressed as the percentage of injected dose detected per gram of sample (%ID/g, tissue radioactivity/g tissue/injected radioactivity × 100).

[3] = test system: P-gp and BCRP; assay: Effect of pretreatment with elacridar on tissue distribution of radioactivity; type: in vivo, mice; conditions: 30 min post-injection, elacridar 5 mg/kg 20-30 min before tracer, vs control
Method: as §2, with “The effects of pretreatment with 1 (BMS-193885) or the ABC transporter-inhibitor elacridar (inhibiting drug efflux transporters, mainly P-gp and BCRP) on tissue distributions of radioactivity were investigated. [^11C]1” for “[^11C]1”
as §1

## COC(=O)C1=C(C)NC(C)=C(C(=O)OC)C1c1cccc(NC(=O)NCCCN2CCC(c3cccc(O[11CH3])c3)CC2)c1 [[^11C]1]
[1]; 5 min after i.v. injection
  Radioactivity level, blood: 0.76±0.07 %ID/g
  Radioactivity level, brain: 0.21±0.01 %ID/g
  Radioactivity level, heart: 1.93±0.23 %ID/g
  Radioactivity level, kidney: 17.41±1.12 %ID/g
  Radioactivity level, liver: 16.09±1.85 %ID/g
  Radioactivity level, lung: 5.08±1.12 %ID/g
  Radioactivity level, muscle: 0.64±0.05 %ID/g
  Radioactivity level, pancreas: 3.40±0.46 %ID/g
  Radioactivity level, small intestine: 6.98±2.37 %ID/g
  Radioactivity level, spleen: 3.18±0.67 %ID/g
[1]; 15 min after i.v. injection
  Radioactivity level, blood: 0.60±0.06 %ID/g
  Radioactivity level, brain: 0.40±0.06 %ID/g
  Radioactivity level, heart: 1.38±0.04 %ID/g
  Radioactivity level, kidney: 14.06±1.00 %ID/g
  Radioactivity level, liver: 8.82±2.28 %ID/g
  Radioactivity level, lung: 3.43±0.28 %ID/g
  Radioactivity level, muscle: 0.57±0.08 %ID/g
  Radioactivity level, pancreas: 3.75±0.35 %ID/g
  Radioactivity level, small intestine: 9.11±1.31 %ID/g
  Radioactivity level, spleen: 2.05±0.17 %ID/g
[1]; 30 min after i.v. injection
  Radioactivity level, blood: 0.50±0.04 %ID/g
  Radioactivity level, brain: 0.32±0.05 %ID/g
  Radioactivity level, heart: 1.10±0.05 %ID/g
  Radioactivity level, kidney: 12.93±1.01 %ID/g
  Radioactivity level, liver: 5.05±0.40 %ID/g
  Radioactivity level, lung: 2.72±0.21 %ID/g
  Radioactivity level, muscle: 0.52±0.11 %ID/g
  Radioactivity level, pancreas: 3.64±0.22 %ID/g
  Radioactivity level, small intestine: 11.02±1.44 %ID/g
  Radioactivity level, spleen: 1.66±0.04 %ID/g
[1]; 60 min after i.v. injection
  Radioactivity level, blood: 0.46±0.06 %ID/g
  Radioactivity level, brain: 0.32±0.05 %ID/g
  Radioactivity level, heart: 0.82±0.07 %ID/g
  Radioactivity level, kidney: 13.37±2.72 %ID/g
  Radioactivity level, liver: 4.09±1.60 %ID/g
  Radioactivity level, lung: 2.13±0.36 %ID/g
  Radioactivity level, muscle: 0.47±0.07 %ID/g
  Radioactivity level, pancreas: 3.70±0.41 %ID/g
  Radioactivity level, small intestine: 12.43±1.54 %ID/g
  Radioactivity level, spleen: 1.41±0.24 %ID/g
[2]; blood
  Change of radioactivity level in blood by pretreatment with 1: not changed
[2]; brain
  Change of radioactivity level in brain by pretreatment with 1: not changed
[2]; heart
  Change of radioactivity level in heart by pretreatment with 1: not changed
[2]; kidney
  Change of radioactivity level in kidney by pretreatment with 1: significantly decreased
[2]; lung
  Change of radioactivity level in lung by pretreatment with 1: significantly decreased
[2]; muscle
  Change of radioactivity level in muscle by pretreatment with 1: not changed
[2]; pancreas
  Change of radioactivity level in pancreas by pretreatment with 1: not changed
[2]; spleen
  Change of radioactivity level in spleen by pretreatment with 1: significantly decreased
[3]; blood
  Change of radioactivity level in blood by pretreatment with elacridar: significantly increased
[3]; brain
  Change of radioactivity level in brain by pretreatment with elacridar: significantly increased
[3]; heart
  Change of radioactivity level in heart by pretreatment with elacridar: significantly increased
[3]; kidney
  Change of radioactivity level in kidney by pretreatment with elacridar: significantly decreased
[3]; lung
  Change of radioactivity level in lung by pretreatment with elacridar: significantly increased
[3]; muscle
  Change of radioactivity level in muscle by pretreatment with elacridar: significantly increased
